Test results from patent publication US20150045410A1, “METHOD OF REGULATING CFTR EXPRESSION AND PROCESSING” (University of Iowa Research Foundation, priority 2012, published 2015).

System: CFTR-ΔF508
Assay: Transepithelial Cl^− current in primary human CFTR null airway epithelia (CFTR Q493X/S912X) transduced with Ad-CFTR-ΔF508
Format: cell-based
Details: CFTR null epithelia (Q493X/S912X) expressing Ad-CFTR-ΔF508, pretreated with oligonucleotide
Method: Transepithelial Cl^− current measurements were made in Ussing chambers about 2 weeks post-seeding (Itani, 0. A. et al. Human cystic fibrosis airway epithelia have reduced Cl− conductance but not increased Na+ conductance. Proc. Natl. Acad. Sci. USA 108, 10260-10265 (2011)). Briefly, primary cultures were mounted in a modified Ussing chamber (Jim's Instruments, 8 wells per instrument). Transepithelial Cl^− current was measured under short-circuit current conditions. Cultures were incubated overnight with 10 μM forskolin and 100 μM 3-isobutyl-1-methylxanthine (IBMX). After measuring baseline current, the transepithelial current (It) response to sequential apical addition of 100 μM amiloride (Amil), 100 μM 4,4′-diisothiocyanoto-stilbene-2,2′-disulfonic acid (DIDS), 4.8 mM [Cl^−], 10 μM forskolin and 100 μM 3-isobutyl-1-methylxanthine (IBMX), and 100 μM GlyH-101 was measured. Studies were conducted with a Cl^− concentration gradient containing 135 mM NaCl, 1.2 mM MgCl2, 1.2 mM CaCl2, 2.4 mM K2PO4, 0.6 mM KH2PO4, 5 mM dextrose, and 5 mM Hepes (pH 7.4) on the basolateral surface, and gluconate substituted for Cl^− on the apical side. […]

Substance	CFTR-mediated Cl^− current
SIN3A DsiRNA: Dicer-substrate siRNA against SIN3A, sense SEQ ID NO: 6, antisense SEQ ID NO: 7 (sense GCGAUACAUGAAUUCAGAUACUACC; antisense GGUAGUAUCUGAAUUCAUGUAUCGCUC; chemistry not given here)	restored
miR-138 mimic: synthetic modified RNA duplex, sense SEQ ID NO: 4, antisense SEQ ID NO: 5, showing miR-138-like activity	restored
